Assay results reported in patent US12702715B2, “Targeted RNA degradation allows precision repurposing of protein-targeted small molecule medicines to RNA” (University of Florida Research Foundation, Incorporated, priority 2020, dated 2026).
“Also recorded” adds a separate entry of the source.

Experiments:
[1] = tested on: proteome of MDA-MB-231 cells; assay: Global proteomics profiling by LC-MS/MS; format: cell-based, human; settings: for number of proteins significantly affected / abundance of miR-21 regulated proteins: 1 and 2 at 1 μM; for number of proteins significantly affected: LNA-21 0.1 μM, 48 h, 3000 proteins detected; for abundance of miR-21 regulated proteins: LNA-21 100 nM; for proteins associated with miR-let-7: control
Procedure: Global Proteomics Profiling by Using LC-MS/MS. MDA-MB-231 cells (~60% confluency) were treated with 1 (1 μM), 2 (1 μM), LNA-21 (0.1 μM), or vehicle for 48 h. After washing with 1×DPBS, the cells were harvested by scraping and resuspended in 1×DPBS. They were lysed by sonication and centrifuged at 14,000×g for 15 min. Protein concentrations were determined by a Bradford assay (Bio-Rad). Protein samples (340 μg) were denatured with 6 M urea in 50 mM NH4HCO3, pH 8, reduced with 10 mM TCEP (tris(2-carboxyethyl)phosphine hydrochloride) for 30 min, and alkylated with 25 mM iodoacetamide for 30 min in the dark. The samples were diluted to a final concentration of 2 M urea with 50 mM NH4HCO3, pH 8, and CaCl2) was added to a final concentration of 1 mM. The protein mixture was digested with tiypsin (1.5 μL of 0.5 μg/μL) overnight at 37° C. The digested protein samples were acidified with acetic acid and desalted over a self-packed C18 spin column. After lyophilization, the samples were analyzed by LC-MS/MS as described below.
LC-MS/MS Analysis and MaxQuant Analysis. The lyophilized protein obtained above was resuspended in 0.1% formic acid in water and analyzed by using an EASY-nLC 1200 nano-UHPLC coupled to Q Exactive HF-X Quadrupole-Orbitrap mass spectrometer (Thermo Scientific) as previously reported^6. Obtained spectra were then analyzed with MaxQuant (V1.6.1.0). Spectra were searched against the human proteome (Uniprot) and common contaminants. The search tolerance was set to 20 ppm for the first peptide search and 10 ppm for the main peptide search. The false discovery rate (FDR) for proteins, peptides and sites identification was set at 5%. All the parameters were set as previously reported^6.
Principal Component Analysis. Principal component analysis (PCA) was completed on the proteomics data that included 2,315 proteins that were detected in all samples after the technical replications were averaged, to visualize overall differences across the samples. R build in package prcomp^10 was used to perform the analysis, where scale was set to TRUE.

FLT3 = FLT3 degradation Western blot in MDA-MB-231 cells; format: cell-based, human
Procedure: In each case, the secondary antibody was diluted two times more than the primary antibody.

[2] = tested on: 3×2 RNA internal loop library (3×2 ILL); assay: AbsorbArray 2DCS selection with Inforna fitness analysis; format: binding, human
Procedure: Construction of AbsorbArray Small Molecule Microarrays. Microarrays were constructed as previously reported^4. Briefly, a 1% agarose solution was poured onto a glass slide and dried on the benchtop. A 200 nL aliquot of 68 hit compounds (10 mM in DMSO) was pinned onto the array from a 384-well plate using Biomek NXP Laboratory Automation Workstation. Slides were then dried overnight to obtain a thin, invisible agarose layer. Slides were washed three times with 1×PBST^5 and then three times with nanopure water. Slides were dried completely in the air before RNA selection, completed by Two-Dimensional Combinatorial Screening (2DCS).
RNA Selection and Screening by 2DCS. The 3×2 RNA ILL was 5′-end ^32P-labeled as previously described^7 and 2DCS selections were completed as previously described 4. All oligonucleotides were folded as described in the “Solution-based Dye Displacement Assay” section. Small molecule microarrays were pre-equilibrated by 3 mL 1× AB2 for 5 min. After removing the pre-equilibration buffer, 5′-end labeled folded 3×2 RNA ILL (~50,000 cpm) was added in 3 mL 1× AB2 containing 1 mM MgCl2 in the presence of competitor oligonucleotides (100 μM each). The oligonucleotide solution was evenly distributed across the microarray surface with a custom-cut piece of Parafilnm. After incubating for 30 min at room temperature, the Parafilm was removed, and the slide was washed gently by submersion in 1× AB2 for 30 s. This washing step was repeated three additional times, and the array was dried on the benchtop for 1 h. […] To harvest and collect the bound RNAs from the ILL, 1 μL of nanopure water was added to each spot. After 30 s, the water drop was absorbed into agarose gel, hydrating it such that it could be excised with a toothpick. The RNAs were eluted from the agarose by simple incubation with water, and then treated with RNase-free DNase I. A unique barcode for each small molecule was installed by reverse transcription (RT). Barcoded RNAs were amplified by PCR, purified, and identified by next-generation sequencing (NGS) using an Ion Proton deep sequencer using PI chips (60-80 million reads) as previously described^2.

[3] = tested on: base pair mutant RNA (control RNA); assay: Fluorescent binding affinity measurement, base pair mutant (control RNA); settings: up to 40 μM of the mutant RNA
Procedure: Fluorescent Binding Affinity Measurements. Binding assays were completed as previously described^5. Briefly, the RNA of interest was folded as described in the “Solution-based Dye Displacement Assay” section, including the addition of BSA. Then, 1 was added to the RNA solution to a final concentration of 0.5 μM. The solution was serial diluted with 1× AB2 containing 0.5 μM of 1. The solutions were incubated at room temperature in the dark for 30 min. The solutions were then transferred to a black 384-well plate. Fluorescence intensity was measured using a Tecan plate reader (Gain: 100, Integration time: 40 μs) with excitation wavelength of and emission wavelength of 355 nm and 535 nm, respectively. The change in fluorescence was normalized to samples lacking RNA. Binding affinity was calculated by using Equation 2, as previously described^5. I=I0+0.5Δε{([FL]0+[RNA]0+Kd)−(([FL]0+[RNA]0+Kd)^2−4[FL]0[RNA]0)^0.5} (2) where I and I0 are the measured fluorescence intensity of compound with or without RNA, respectively, Δε is the difference between the fluorescence intensity with infinite concentration of RNA or without RNA, [FL]0 and [RNA]0 are the concentrations of small molecule and RNA, respectively, and Kd is the dissociation constant.

pre-miR-21 = assay: In vitro Dicer processing of pre-miR-21; format: biochemical, human
Procedure: (§1) In vitro Dicer Processing. The pre-miR-21 WT RNA or pre-miR-21 base pair mutant were 5′-end labeled with T4 polynucleotide kinase and [γ-^32P] ATP as described previously^7. The RNA was folded in 1× Reaction Buffer (Genlantis) by heating at 55° C. for 5 min and cooling slowly to room temperature on the benchtop. The mixture was then supplemented with 2.5 mM MgCl2 and 1 mM ATP. The Dicer processing reaction was performed as described previously^6. The cleavage products were resolved on a 15% polyacrylamide denaturing gel and imaged using a Molecular Dynamics Typhoon phosphorimager and quantified with QuantityOne software from Bio-Rad.

pre-miR-21 mutant = assay: In vitro Dicer processing of pre-miR-21 mutant; format: biochemical
Procedure: as §1

| SMILES | PCA similarity of proteome [1] | number of proteins significantly affected [1] | abundance of miR-21 regulated proteins [1] | proteins associated with miR-let-7 [1] | fold greater concentration than 1 required to compete off degradation by PROTAC 3 (FLT3) | concentration required to compete off the target degradation of PROTAC 3 (FLT3; co-treatment with 3) | number of affected proteins associated with ERK pathways ([1]; 1 μM) | number of binding RNA motifs ([2]; Zobs>8) | Fitness score of A bulge (5'GAC/3'C_G) in the Dicer processing site of pre-miR-21 ([2]; normalized to most significant motif = 100) | binding to control RNA / base pair mutant [3] | in vitro processing of pre-miR-21 (pre-miR-21) | inhibition of Dicer processing of mutant pre-miR-21 lacking the 1 binding site (pre-miR-21 mutant) |
| --- | --- | --- | --- | --- | --- | --- | --- | --- | --- | --- | --- | --- |
| CCOC(=O)C1=C(Nc2ccccc2)S/C(=C\c2ccc(OCCOCCOCCOCCNC(=O)NCCN3CCN(c4ccc5[nH]c(-c6c(N)c7c(F)cccc7[nH]c6=O)nc5c4)CC3)c(O)c2)C1=O [Compound 2, Ribotac-Dovitinib] | more similar to treatment with LNA-21 than 1 | 28 | globally upregulated; also recorded: significant increase in abundance | Neither treatment with 1 nor 2 affected | 100 fold | 10 µM | – | – | – | – | – | – |
| CN1CCN(c2ccc3nc(-c4c(N)c5c(F)cccc5[nH]c4=O)[nH]c3c2)CC1 [Compound 1, Dovitinib, reference compound] | – | 46 | had no effect; also recorded: no significant changes | Neither treatment with 1 nor 2 affected | – | – | 14 | 256 | 85 | No saturable binding | inhibited | had no effect; also recorded: unable to inhibit |
